# Measurements taken from patent US12594255B2, “Lipids with odd number of carbon atoms and their use as pharmaceutical composition or nutritional supplement” (SunRegen Healthcare AG, priority 2016, dated 2026).
# Like-named read-outs stand apart in the source and are kept apart here.
# Tests used:
# [1] = tested on: age-induced protein aggregates in Saccharomyces cerevisiae; assay: Age-induced protein aggregates (Hsp104-GFP foci) in old yeast cells; assay type: cell-based; conditions: for proportion of cells with a Hsp104-GFP focus: vehicle only 58.7±10.6%
# Procedure: FIG. 9a: Representative images of a young cell, or old cells untreated or treated with Herb B (10 μg/ml) or Compound C (30 μM). Upper panels are maximum projection of z-series stacks of cells stained with fluorescent brightener 28 and imaged in the DAPI channel to reveal bud scars. Lower panel are single focal planes images of the same cells that express Hsp104-GFP and imaged in the GFP channel. Arrow point at an Hsp104-GFP focus.
# FIG. 9c: Percentage of cells with an Hsp104-GFP focus. Cells were imaged with the same illumination conditions. All old cells imaged were included (between 75 and 94 cells). All focal planes were examined Mean±SD. P values are adjusted p values from an ANOVA comparing to vehicle only.
# FIG. 9d: Average fluorescence intensity of Hsp104-GFP in the cell as a proxy for Hsp104-GFP concentration. Mean±SD. P values are adjusted p values obtained from ANOVA comparing to vehicle only
# To test an effect on the formation of age-induced Hsp104-GFP foci, old cells were obtained and cultivated in the presence of Compound C (1 μM, 10 μM and 30 μM). Herb B (10 μg/ml), ethanol (0.3%, vehicle only) or in the absence of any treatment. Untreated young cells were obtained through a simple exponential growth.
# Age was determined by staining bud scars with fluorescent brightener 28. […] (FIG. 9b)
# [2] = tested on: mouse primary cortical neurons challenged with different types toxins; assay type: cell-based; conditions: T3
structure (smiles),measurement,setting,value
"CCCCCCCCCCCCCCC(=O)OCC(COC(=O)CCCCCCCCCCCCCC)OC(=O)CCCCCCCCCCCCCC [Compound C, tripentadecanoin]",proportion of cells with a Hsp104-GFP focus,"[1]; 1 μM, not statistically significant",46.2±4.8%
same,proportion of cells with a Hsp104-GFP focus,[1]; 10 μM,37.5±6.0%
same,proportion of cells with a Hsp104-GFP focus,[1]; 30 μM,34.3±13.7%
same,intensity of Hsp104-GFP (increase in old vs young cells),"[1]; compound C 1, 10, 30 μM, herb B 10 μg/ml",reduced the extent of this increase
same,anti-apoptotic and neuroprotective effects,"[2]; Aβ1-42 fibrils, 10000 nM",223%
same,anti-apoptotic and neuroprotective effects,"[2]; Aβ25-35 fibrils, 10000 nM",32.1%
same,anti-apoptotic and neuroprotective effects,"[2]; alpha-synuclein fibrils, 1000 nM",34.0%
same,anti-apoptotic and neuroprotective effects,"[2]; human alpha-synuclein oligomer-induced toxicity, 10000 nM",45.8%
same,anti-apoptotic and neuroprotective effects,"[2]; human amylin fibrils, 1000 nM",45.3%
same,anti-apoptotic and neuroprotective effects,"[2]; human amylin fibrils, 10000 nM",52.6%
same,anti-apoptotic and neuroprotective effects,"[2]; human amylin oligomers, 1000 nM",30.8%
same,anti-apoptotic and neuroprotective effects,"[2]; human amylin oligomers, 10000 nM",37.3%
same,anti-apoptotic and neuroprotective effects,"[2]; human tau oligomer-induced toxicity, 10000 nM",46.8%
same,anti-apoptotic and neuroprotective effects,"[2]; tau fibril-induced toxicity, 10000 nM",23.1%
